Results on nine compounds are retold here after patent US12702673B2, “Sulfated C19 steroid hormones to treat and/or prevent proteotoxicity in protein-aggregation diseases” (U[…] DE OLAVIDE, priority 2020, dated 2026).

Entries after “also recorded” stand apart in the source; their conditions may differ. Structures can show the parent of a compound that is named as a salt.

The subject of data set [1] is GMC101 strain expressing human β-amyloid in muscle. The experiment in a line: Alzheimer's disease model: paralysis of GMC101 strain. Format: in vivo, Caenorhabditis elegans. To be noted: for paralysis with age: 20° C., monitored during adulthood. From the text:
Data display from six independent biological replicates, n≥215.
FIG. 4b illustrates that paralysis of GMC101 Alzheimer's disease model is ameliorate with TS and ES.
Assays performed with normal NGM plates. Data display from three independent biological replicates, n>130.
FIG. 15 illustrates that treatment with Androsterone Sulfate (AS) ameliorates the symptoms of Alzheimer's model in Caenorhabditis elegans. The strain GMC101 expresses the human b-amyloid in muscle cells and generate paralysis with age. […] Data from 5 biological replicates. Paralysis was monitored during adulthood. […] More than 200 nematodes were analyzed. Nematodes were synchronized and assayed at 20° C.

Data set [2] deals with NL5901 strain expressing α-synuclein in muscle cells. Format: in vivo, Caenorhabditis elegans. As to conditions: 1 μg/ml.
The subject of data set [3] is CL2006 strain expressing human β-amyloid in muscle. The experiment in a line: Alzheimer's disease model: paralysis with age of CL2006 strain. Format: in vivo, Caenorhabditis elegans. From the text:
FIG. 12g illustrates that expression of human β-amyloid in muscle provokes paralysis with age (CL2006 strain) that is ameliorated by STX64 treatment. Log-rank (Mantel-Cox) test, for sul-2 deletion p=0.0027 and STX treatment p=0.007.

Data set [4] deals with wild type mice injected with β-amyloid oligomers in the hippocampus. Nature of the data set: Passive avoidance test, acute AD model (intrahippocampal β-amyloid oligomers). Format: in vivo. From the text: FIGS. 3i and 3j illustrate that the effect of intrahippocampal and oral administration of STX64 in the passive avoidance test in wild type mice injected with β-amyloid oligomers in the hippocampus. The number of mice in each group were >5.
FIG. 3p illustrates effect of oral administration with STX64 in more than 15-month-old APP-PS1 mice, and comparation with APP-PS1 and wild type mice older than 15 months in the passive avoidance test. The number of mice in each group were >5. In histological analysis, * represent significant differences between vehicle- and STX64 administrated APP-PS1 mice. […]
As STX64 ameliorated neurodegeneration in C. elegans models, we tested the effect of this drug on cognitive alterations provoked by intrahippocampal βA oligomers infusion, an acute AD mammalian model (FIG. 3i). […] To evaluate the effect of STX64 oral treatment on amyloid pathology in a chronic AD mice model, we assessed the effect of 3-4 weeks of STX64 oral treatment on amyloid deposition in the […] (the cerebral cortex and the hippocampus) of >15-month-old APP-PS1 mice (FIG. 4k). […]

In data set [5] the test system is APP-PS1 mice. The experiment in a line: β-amyloid deposition in chronic AD model. Format: in vivo. The method, then:
FIG. 3k illustrates that representative β-amyloid-immunoreactive images assessed in the frontal cortex and the hippocampus of APP-PS1 mice older than 15 months of age after 3-4 weeks of vehicle or STX64 intake (0.005 mg/ml in drink water).
FIGS. 3l-3n illustrate quantification of percentage of β-amyloid area (c), deposition density (d) and average plaque size (e) in the frontal cortex and the hippocampus of >15 months-old APP-PS1 mice after 3-4 weeks of oral administration with STX64 or vehicle. n=4 mice per groups.
FIG. 3o illustrates temporal course of β-amyloid deposition in APP-PS1 mice and the effect of 3-4 weeks STX64 oral treatment on β-amyloid area in the frontal cortex (upper panel) and the hippocampus (lower panel). The number of microphotographs used was more than 3 in all the mice used.
As STX64 ameliorated neurodegeneration in C. elegans models, we tested the effect of this drug on cognitive alterations provoked by intrahippocampal βA oligomers infusion, an acute AD mammalian model (FIG. 3i). […] To evaluate the effect of STX64 oral treatment on amyloid pathology in a chronic AD mice model, we assessed the effect of 3-4 weeks of STX64 oral treatment on amyloid deposition in the […] (the cerebral cortex and the hippocampus) of >15-month-old APP-PS1 mice ([…]). […] We wondered if this histological improvement correlated with amelioration of cognitive behavioral deficit. For that, we compared cognition capacities in APP-PS1 mice older than 15-month-old treated with vehicle or STX64 for 3-4 weeks.

The next data set has as its system C. elegans. Nature of the data set: Longevity (lifespan) assay in C. elegans. Format: in vivo, Caenorhabditis elegans. An excerpt:
Worms were cultivated in UV-killed E. coli.
FIGS. 13c and 13d illustrate that additional biological replicates of longevity curve with sulfated C19 steroid hormones.

For data set [6], the system named is APP-PS1 mice. The experiment in a line: Passive avoidance test in chronic AD model. Format: in vivo. As to conditions: APP-PS1 mice older than 15 months; 3-4 weeks oral. An excerpt:
FIG. 3p illustrates effect of oral administration with STX64 in more than 15-month-old APP-PS1 mice, and comparation with APP-PS1 and wild type mice older than 15 months in the passive avoidance test. The number of mice in each group were >5. In histological analysis, * represent significant differences between vehicle- and STX64 administrated APP-PS1 mice. In behavioral test, * represent significant differences between the short-term and long-term memory sessions (STM and LTM, respectively) and the training session in the same experimental group; and, + represent significant differences between the STM and LTM sessions between each experimental group and β-amyloid group. A symbol, p<0.05, two symbols, p<0.01, and three symbols, p<0.001.
As STX64 ameliorated neurodegeneration in C. elegans models, we tested the effect of this drug on cognitive alterations provoked by intrahippocampal βA oligomers infusion, an acute AD mammalian model (FIG. 3i). […] To evaluate the effect of STX64 oral treatment on amyloid pathology in a chronic AD mice model, we assessed the effect of 3-4 weeks of STX64 oral treatment on amyloid deposition in the […] (the cerebral cortex and the hippocampus) of >15-month-old APP-PS1 mice (FIG. 4k). […] We wondered if this histological improvement correlated with amelioration of cognitive behavioral deficit. […]

For data set [7], the system named is Q40 aggregates (AM141 strain). Nature of the data set: Huntington model: polyglutamine (Q40) aggregates. Format: in vivo, Caenorhabditis elegans. As to conditions: Q40 background; 1 μg/ml; 5-day old worms. From the text: Strains AM140 and AM141 respectively.
In this model, GFP-labelled dopaminergic neurons die due to α-synuclein toxicity. […] We also tested two different strains of Alzheimer's disease (AD) in worms, where immobility is caused by expression of βA protein in muscle cells.

In another data set the test system is daf-2(e1370). Nature of the data set: Development / larval arrest at 25° C. (daf-2 interaction). Format: in vivo, Caenorhabditis elegans. As to conditions: for L1 arrest: daf-2(e1370) background. As to the method:
FIG. 5i illustrates example of sul-2(pv17) larvae, Dauer larval arrest of daf-2(e1370) or L1 arrest of daf-2(e1370); sul-2(pv17) and daf-2(e1370); sul-2(gk187) at 25° C. Animals were grown up to L4 at 16° C., then shifted at 25° C., progeny were scored or imaged after 72 hours. Photographs were taken in a Leica scope.
Photographs were taken in a Leica scope. Arrow heads: Dauers, arrows: L1s.

For data set [8], the system named is mammalian model with intrahippocampal administration of βA oligomers. As to conditions: local administration; cited from earlier work.
Setting [9] is: thermodependent paralysis, 1 μg/ml.
Setting [10] is: wild type background, hormone 1 μg/ml.

For the compound `NS(=O)(=O)Oc1ccc2c3c(c(=O)oc2c1)CCCCC3` [STX64], the paralysis phenotype result in data set [1] (setting [9]) is given as “delayed paralysis; also recorded: the paralysis phenotype is ameliorated”. The mobility with age result in data set [2] was “significantly improved mobility; also recorded: protective effect”. For the same compound, the paralysis with age entry in data set [3] was “delayed paralysis; also recorded: ameliorated”. Moreover, the figures for the “cognitive deficiencies, passive avoidance test” value (in data set [4] (local (intrahippocampal) administration); in data set [4] (systemic (oral) administration); in the data set on APP-PS1 mice [6]) were “reverted the cognitive deficiencies”, “reverted the cognitive deficiencies” and “completely reverted cognitive deficiencies”, respectively. The βA plaque density result in the data set on APP-PS1 mice [5] (>15-month-old APP-PS1 mice, 3-4 weeks oral, 0.005 mg/ml in drink water, cortex and hippocampus) is recorded as “significant reduction”. Besides, in the data set on APP-PS1 mice [5] (>15-month-old APP-PS1 mice, 3-4 weeks oral, cortex), the βA plaque size entry was “significant reduction”. The βA immunoreactive area entry with APP-PS1 mice [5] (>15-month-old APP-PS1 mice, 3-4 weeks oral, cortex and hippocampus) is listed as “reduced in both tissues”. Further, the “βA deposition versus normal temporal course” value in the data set with APP-PS1 mice [5] (>15-month-old treated mice compared to un-treated APP-PS1 mice of 10-12 months) is recorded as “reduces βA deposition”. Moreover, the “lifespan, dependence on daf-36” value in the data set on C. elegans (daf-36 background, STX64 1 μg/ml) is reported as “DAF-36 is required for the longevity; also recorded: necessary for the increase of longevity”. Moreover, the life span entry is reported as “not in sul-2 (gk187) background; also recorded: does not further increase the longevity of sul-2 deletion mutants” in the data set with C. elegans (sul-2 (gk187) deletion background, STX64 1 μg/ml, UV-killed E. coli); “increases lifespan in wild type animals; also recorded: an increase in longevity” in the data set with C. elegans (wild type animals, STX64 1 μg/ml, UV-killed E. coli); “increases lifespan of wild type” in the data set on C. elegans (wild type, non-UV E. coli). Also, the “number of Q40 aggregates” value in data set [7] was “reduced the number of aggregates; also recorded: Q40 aggregates are reduced”. For the same compound, the L1 arrest result in the data set on daf-2(e1370) is listed as “mainly arrests in L1”. Besides, in the data set on daf-2(e1370) (wild type), the development result was “does not affect development of wild type”.

For `C[C@]12CC[C@H]3[C@@H](CCC4=CC(=O)CC[C@@]43C)[C@@H]1CC[C@@H]2OS(=O)(=O)O` [TS, [(8R,9S,10R,13S,14S,17S)-10,13-dimethyl-3-oxo-1,2,6,7,8,9,11,12,14,15,16,17-dodecahydrocyclopenta[a]phenanthren-17-yl]hydrogen sulfate], the paralysis phenotype result is “reduced” in data set [1] (normal NGM plates, 1 μg/ml) and “ameliorate” in [1] (setting [9]). The mobility with age result in [2] is listed as “improves the mobility”. Also, the life span entry in the data set with C. elegans (setting [10]) is on record as “do not affect; also recorded: does not affect longevity”. The L1 arrest result in the data set on daf-2(e1370) is on record as “increase”.

Consider `C[C@]12CC[C@H](O)CC1=CC[C@@H]1[C@@H]2CC[C@]2(C)C(=O)CC[C@@H]12` [DHEA], for which the mobility with age entry in data set [2] was “showed no effect; also recorded: no effect is observed”.

As to `CCCCCCCCCCCCCC(=O)NCCc1ccc(OS(N)(=O)=O)cc1` [DU-14], in [8], the memory loss entry was “could alleviate memory loss”.

Consider `C[C@]12CC[C@@H](OS(=O)(=O)O)C[C@@H]1CC[C@@H]1[C@@H]2CC[C@]2(C)C(=O)CC[C@@H]12` [AS, [(3R,5S,8R,9S,10S,13S,14S)-10,13-Dimethyl-17-oxo-1,2,3,4,5,6,7,8,9,11,12,14,15,16-tetradecahydrocyclopenta[a]phenanthren-3-yl] sulfate], for which the paralysis with age entry in data set [1] (1 μg/ml) and in data set [1] (5 μg/ml) was “reduce this effect” in each case.

Regarding pregnenolone sulfate, in data set [2], the mobility with age result was “showed no effect; also recorded: no effect is observed”.

As to `C[C@]12CC[C@H]3[C@@H](CCC4=CC(=O)CC[C@@]43C)[C@@H]1CC[C@H]2OS(=O)(=O)O` [ES, N,N-diethylethanamine; [(8R,9S,10R,13S,14S,17R)-10,13-dimethyl-3-oxo-1,2,6,7,8,9,11,12,14,15,16,17-dodecahydrocyclopenta[a]phenanthren-17-yl] hydrogen sulfate], the paralysis phenotype entry was “reduced” in data set [1] (normal NGM plates, 1 μg/ml) and “ameliorate” in data set [1] (setting [9]). For the same compound, the mobility with age entry in [2] is “improves the mobility”. For the same compound, the life span result in the data set with C. elegans (sul-2(gk187) / sul-2 mutants background, hormone 1 μg/ml) is reported as “did not further increase longevity in sul-2 mutants backgrounds; also recorded: does not further increase in sul-2(gk187)”; in the data set on C. elegans (sul-2(pv17) background, hormone 1 μg/ml) it was “does not increase further in sul-2(pv17)”; with C. elegans (setting [10]), “increases lifespan in wild type background; also recorded: increased in longevity on a wild type background; also recorded: increases life span in a wild type background”. In the data set on daf-2(e1370), the L1 arrest entry is reported as “increase”.

Consider dehydroepiandrosterone sulfate [DHEAS], for which the mobility with age entry in data set [2] is “improves the mobility”. For the same compound, in the data set on C. elegans (setting [10]), the life span entry is given as “do not affect; also recorded: does not affect longevity”. In the data set on daf-2(e1370), the L1 arrest entry is given as “increase”.

Regarding `C[C@]12CC[C@H]3[C@@H](CCC4=CC(=O)CC[C@@]43C)[C@@H]1CC[C@@H]2O` [testosterone], the mobility with age entry in data set [2] is on record as “showed no effect; also recorded: no effect is observed”.
